From article PMC3170876 (Chemmedchem, 2011)

What was measured:
human 11β-HSD1 = human 11β-HSD1 (Homo sapiens, UniProt P28845); assay: 11β-HSD1 inhibition cellular assay; format: cell-based; settings: for IC50: IC50, human 11β-HSD1, HEK293 cell line transfected with human HSD11B1 gene, mean of three measurements, variance less than 20 %; for inhibition at 1 µM: HEK293, read-out: Percent inhibition
mouse 11β-HSD1 = mouse 11β-HSD1 (Mus musculus, UniProt P50172); assay: Inhibition of mouse 11β-HSD1; format: cell-based
mouse 11β-HSD1, sequence (P50172 whole entry): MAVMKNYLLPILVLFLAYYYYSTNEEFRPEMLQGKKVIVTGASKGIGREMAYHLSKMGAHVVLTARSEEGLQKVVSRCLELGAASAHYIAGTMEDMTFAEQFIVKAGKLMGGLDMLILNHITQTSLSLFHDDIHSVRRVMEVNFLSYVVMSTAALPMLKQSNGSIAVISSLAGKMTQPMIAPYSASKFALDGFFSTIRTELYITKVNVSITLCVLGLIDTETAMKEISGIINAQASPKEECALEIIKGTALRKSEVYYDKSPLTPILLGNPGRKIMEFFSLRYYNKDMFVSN

human 11β-HSD1, sequence (P28845 whole entry): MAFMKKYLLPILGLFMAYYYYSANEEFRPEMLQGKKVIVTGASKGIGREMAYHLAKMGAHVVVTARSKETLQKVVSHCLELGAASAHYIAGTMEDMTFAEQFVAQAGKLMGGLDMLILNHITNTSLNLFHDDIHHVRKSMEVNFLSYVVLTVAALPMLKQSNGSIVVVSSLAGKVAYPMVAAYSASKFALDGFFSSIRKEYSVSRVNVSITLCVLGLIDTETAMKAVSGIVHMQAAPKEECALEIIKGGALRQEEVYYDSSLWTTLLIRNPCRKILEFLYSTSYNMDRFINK

Structure (SMILES): Cn1c(SCC(=O)C23CC4CC(CC(C4)C2)C3)nnc1C1CC1 [Compound 40, 1-(Adamantan-1-yl)-2-[(5-cyclopropyl-4-methyl-4H-1,2,4-triazol-3-yl)sulfanyl]ethanone]
- IC50 (human 11β-HSD1): 129 nM

Structure (SMILES): COC(=O)Cc1nnc(SCC(=O)C23CC4CC(CC(C4)C2)C3)n1C [Compound 42, Methyl 2-(5-{[2-(adamantan-1-yl)-2-oxoethyl]sulfanyl}-4-methyl-4H-1,2,4-triazol-3-yl)acetate]
- IC50 (human 11β-HSD1): 97 nM

Structure (SMILES): O=C(CSc1nnc(C2CC2)n1C1CC1)C12CC3CC(CC(C3)C1)C2 [Compound 43, 1-(Adamantan-1-yl)-2-[(4,5-dicyclopropyl-4H-1,2,4-triazol-3-yl)sulfanyl]ethanone]
- IC50 (human 11β-HSD1): 1860 nM
- melting point: 117 to 119 °C

Structure (SMILES): O=C(COCc1nccs1)C12CC3CC(CC(C3)C1)C2 [Compound 8, 1-(Adamantan-1-yl)-2-(1,3-thiazol-2-ylmethoxy)ethanone]
- IC50 (human 11β-HSD1): 41 nM
- IC50 (mouse 11β-HSD1): 18 nM
- melting point: 89 to 91 °C

Structure (SMILES): Cc1nnc(SCC(=O)C23CC4CC(CC(C4)C2)C3)s1 [Compound 29, 1-(Adamantan-1-yl)-2-(5-methyl-[1,3,4]thiadiazol-2-ylsulfanyl)-ethanone]
- melting point: 102 to 105 °C

Structure (SMILES): Cn1cnnc1[S+]([O-])CC(=O)C12CC3CC(CC(C3)C1)C2 (stereo not drawn) [Compound 32, 1-(Adamantan-1-yl)-2-(4-methyl-4H-[1,2,4]triazole-3-sulfinyl)ethanone]
- IC50 (human 11β-HSD1): 27 nM
- IC50 (mouse 11β-HSD1): 3080 nM
- melting point: 124.5 to 127 °C

Structure (SMILES): Cn1ccnc1S(=O)(=O)CC(=O)C12CC3CC(CC(C3)C1)C2 [Compound 35, 1-(Adamantan-1-yl)-2-(1-methyl-1H-imidazole-2-sulfonyl)ethanone]
- IC50 (human 11β-HSD1): 62 nM
- melting point: 124 to 125 °C

Structure (SMILES): Cn1cnnc1S(=O)(=O)CC(=O)C12CC3CC(CC(C3)C1)C2 [Compound 36, 1-(Adamantan-1-yl)-2-(4-methyl-4H-[1,2,4]triazole-3-sulfonyl)ethanone]
- IC50 (human 11β-HSD1): 95 nM
- melting point: 149 to 150 °C

Structure (SMILES): Cc1csc(COCC(=O)C23CC4CC(CC(C4)C2)C3)n1 [Compound 9, 1-(Adamantan-1-yl)-2-[(4-methyl-1,3-thiazol-2-yl)methoxy]ethanone]
- melting point: 77 to 80 °C

Structure (SMILES): Cc1csc(CSCC(=O)C23CC4CC(CC(C4)C2)C3)n1 [Compound 13, 1-(Adamantan-1-yl)-2-{[(4-methyl-1,3-thiazol-2-yl)methyl]sulfanyl}ethanone]
- IC50 (human 11β-HSD1): 327 nM

Structure (SMILES): O=C(CSCc1cccs1)C12CC3CC(CC(C3)C1)C2 [Compound 10, 1-(Adamantan-1-yl)-2-(thiophen-2-ylmethylsulfanyl)ethanone]
- IC50 (human 11β-HSD1): 143 nM

Structure (SMILES): CCSc1nnc(SCC(=O)C23CC4CC(CC(C4)C2)C3)s1 [Compound 47, 1-(Adamantan-1-yl)-2-{[5-(ethylsulfanyl)-1,3,4-thiadiazol-2-yl]sulfanyl}ethanone]
- inhibition at 1 µM (human 11β-HSD1): 68%

Structure (SMILES): Cc1nnc(SCC(=O)C23CC4CC(CC(C4)C2)C3)n1C(C)C [Compound 39, 1-(Adamantan-1-yl)-2-{[5-methyl-4-(propan-2-yl)-4H-1,2,4-triazol-3-yl]sulfanyl}ethanone]
- IC50 (human 11β-HSD1): 137 nM

Structure (SMILES): O=C(O)c1ccc(CSCC(=O)C23CC4CC(CC(C4)C2)C3)o1 [Compound 19, 5-(((2-(Adamantan-1-yl)-2-oxoethyl)thio)methyl)furan-2-carboxylic acid]
- inhibition at 1 µM (human 11β-HSD1): 67%

Structure (SMILES): COC(=O)c1ccc(CSCC(=O)C23CC4CC(CC(C4)C2)C3)o1 [Compound 18, Methyl 5-({[2-(adamantan-1-yl)-2-oxoethyl]sulfanyl}methyl)furan-2-carboxylate]
- IC50 (human 11β-HSD1): 264 nM

Structure (SMILES): Cn1ccnc1SCC(=O)C12CC3CC(CC(C3)C1)C2 [Compound 27, 1-(Adamantan-1-yl)-2-(1-methyl-1H-imidazol-2-ylsulfanyl)-ethanone]
- IC50 (human 11β-HSD1): 93 nM
- melting point: 65 to 69 °C

Structure (SMILES): Nc1nnc(SCC(=O)C23CC4CC(CC(C4)C2)C3)s1 [Compound 48, 1-(Adamantan-1-yl)-2-[(5-amino-1,3,4-thiadiazol-2-yl)sulfanyl]ethanone]
- IC50 (human 11β-HSD1): 71 nM
- melting point: 198 to 199 °C

Structure (SMILES): O=C(C[S+]([O-])Cc1ccco1)C12CC3CC(CC(C3)C1)C2 (stereo not drawn) [Compound 15, 1-(Adamantan-1-yl)-2-(furan-2-ylmethanesulfinyl)ethanone]
- IC50 (human 11β-HSD1): 41 nM
- IC50 (mouse 11β-HSD1): 38 nM
- melting point: 75 to 79 °C

Structure (SMILES): CN(C)C(=O)c1ccc(CSCC(=O)C23CC4CC(CC(C4)C2)C3)o1 [Compound 20, 5-({[2-(Adamantan-1-yl)-2-oxoethyl]sulfanyl}methyl)-N,N-dimethylfuran-2-carboxamide]
- IC50 (human 11β-HSD1): 153 nM

Structure (SMILES): O=C(CSc1cccs1)C12CC3CC(CC(C3)C1)C2 [Compound 26, 1-(Adamantan-1-yl)-2-(thiophen-2-ylsulfanyl)-ethanone]
- IC50 (human 11β-HSD1): 101 nM
- melting point: 69 to 72 °C

Structure (SMILES): O=C(COCc1ccsc1)C12CC3CC(CC(C3)C1)C2 [Compound 7, 1-(Adamantan-1-yl)-2-(thiophen-3-ylmethoxy)ethanone]
- IC50 (human 11β-HSD1): 280 nM
- melting point: 58 to 60 °C

Structure (SMILES): CN(C)c1nnc(SCC(=O)C23CC4CC(CC(C4)C2)C3)s1 [Compound 45, 1-(Adamantan-1-yl)-2-{[5-(dimethylamino)-1,3,4-thiadiazol-2-yl]sulfanyl}ethanone]
- IC50 (human 11β-HSD1): 4000 nM

Structure (SMILES): CC(=O)Nc1nnc(SCC(=O)C23CC4CC(CC(C4)C2)C3)s1 [Compound 50, N-(5-{[2-(Adamantan-1-yl)-2-oxoethyl]sulfanyl}-1,3,4-thiadiazol-2-yl)acetamide]
- IC50 (human 11β-HSD1): 848 nM

Structure (SMILES): Nc1nnc(S(=O)(=O)CC(=O)C23CC4CC(CC(C4)C2)C3)s1 [Compound 49, 1-(Adamantan-1-yl)-2-(5-amino-1,3,4-thiadiazole-2-sulfonyl)ethanone]
- IC50 (human 11β-HSD1): 1790 nM
- melting point: 202 to 204 °C

Structure (SMILES): O=C(CSCc1ccco1)C12CC3CC(CC(C3)C1)C2 [Compound 11, 1-(Adamantan-1-yl)-2-(furan-2-ylmethylsulfanyl)-ethanone]
- IC50 (human 11β-HSD1): 163 nM

Structure (SMILES): Cn1c(SCC(=O)C23CC4CC(CC(C4)C2)C3)nnc1-c1cccs1 [Compound 44, 1-(Adamantan-1-yl)-2-{[4-methyl-5-(thiophen-2-yl)-4H-1,2,4-triazol-3-yl]sulfanyl}ethanone]
- IC50 (human 11β-HSD1): 5870 nM
- melting point: 156 to 157 °C

Structure (SMILES): O=C(COCc1cccs1)C12CC3CC(CC(C3)C1)C2 [Compound 6, 1-(Adamantan-1-yl)-2-(thiophen-2-ylmethoxy)ethanone]
- IC50 (human 11β-HSD1): 410 nM
- melting point: 57 to 58 °C

Structure (SMILES): COCc1nnc(SCC(=O)C23CC4CC(CC(C4)C2)C3)n1C [Compound 41, 1-(Adamantan-1-yl)-2-{[5-(methoxymethyl)-4-methyl-4H-1,2,4-triazol-3-yl]sulfanyl}ethanone]
- IC50 (human 11β-HSD1): 153 nM

Structure (SMILES): O=C(CSCc1nccs1)C12CC3CC(CC(C3)C1)C2 [Compound 12, 1-(Adamantan-1-yl)-2-[(1,3-thiazol-2-ylmethyl)sulfanyl]ethanone]
- IC50 (human 11β-HSD1): 244 nM
- melting point: 55 to 58 °C

Structure (SMILES): CSc1nnc(SCC(=O)C23CC4CC(CC(C4)C2)C3)s1 [Compound 46, 1-(Adamantan-1-yl)-2-{[5-(methylsulfanyl)-1,3,4-thiadiazol-2-yl]sulfanyl}ethanone]
- IC50 (human 11β-HSD1): 306 nM
- melting point: 133.5 to 135 °C
